Results taken from patent US4337199A, “Antibiotic β-lactam compounds, production thereof, and their use as antimicrobial agent” (Sanraku-Ocean Co., Ltd., priority 1978, dated 1982).
≈ marks a conversion by molar mass, not a printed value. Where two headings read alike, the source gives them in different places.

Tests used:
Assay in all cases: minimum inhibitory concentration, agar dilution assay
Assay type in all cases: cell-based
[1] = system: Proteus rettgeri P7; settings: Providencia rettgeri, read-out: minimum inhibitory concentration
Description: (§1) The antibiotic activities shown in Tables I-1 to I-8 above were determined in the following manner.
(§2) The minimum inhibitory concentrations of the compounds of formula (I-a-1) or (I-b-1) in Tables I-1 to I-7 and the known compounds in Table I-8 on the various microorganisms shown in the above tables were measured by an agar dilution assay method using a brain heart infusion agar medium "Difco" (a product of Difco Laboratories Inc.)
(§3) A sample of the test compound was dissolved in sterile distilled water and diluted to prepare a two-fold dilution series of the compound solution. In a petri plate of 9 cm diameter, 1 ml of the compound solution was added to 9 ml of molten sterile heart infusion agar medium (Difco Laboratories Inc.) at about 60° C. to prepare the compound-containing agar plate. An overnight culture of each test organism indicated in the above table which was prepared by stationary cultivation in Trypto-Soy broth (Eiken Chemi. Co., Ltd.) at 35° C. for 18 to 20 hours, was diluted with the Trypto-Soy broth to give approximately 10^8 cells/ml and the diluted inoculum was inoculated onto the compound-containing agar plates. After cultivating the plates at 35° C. for 20 hours, the growth of the organism was observed. The minimum concentration of the compound at which no growth of the microorganism was noted was determined, and defined as the minimum inhibitory concentration of the test compound.

[2] = system: Klebsiella pneumoniae K-13; settings: read-out: minimum inhibitory concentration
Description: as §1, §2, §3

[3] = system: Providencia sp. P8; settings: read-out: minimum inhibitory concentration
Description: as §1, §2, §3

[4] = system: Escherichia coli K-12; settings: read-out: minimum inhibitory concentration
Description: as §1, §2, §3

[5] = system: Escherichia coli RGN 823; settings: read-out: minimum inhibitory concentration
Description: as §1, §2, §3

[6] = system: Serratia marcescens S18; settings: read-out: minimum inhibitory concentration
Description: as §1, §2, §3

[7] = system: Citrobacter freundii GN 346; settings: read-out: minimum inhibitory concentration
Description: as §1, §2, §3

[8] = system: Enterobacter aerogenes E19; settings: Klebsiella aerogenes, read-out: minimum inhibitory concentration
Description: as §1, §2, §3

[9] = system: Staphylococcus aureus Smith; settings: read-out: minimum inhibitory concentration
Description: as §1, §2, §3

[10] = system: Alcaligenes faecalis A 1; settings: read-out: minimum inhibitory concentration
Description: as §1, §2, §3

[11] = system: Pseudomonas aeruginosa NCTC10490; settings: read-out: minimum inhibitory concentration
Description: as §1, §2, §3

[12] = system: Staphylococcus aureus FDA 209P; settings: FDA209P, read-out: minimum inhibitory concentration
Description: as §1, §2, §3

[13] = system: Serratia marcescens T55; settings: read-out: minimum inhibitory concentration
Description: as §1, §2, §3

[14] = system: Proteus mirabilis P6; settings: read-out: minimum inhibitory concentration
Description: as §1, §2, §3

[15] = system: Sarcina lutea; settings: Micrococcus luteus, read-out: minimum inhibitory concentration
Description: as §1, §2, §3

[16] = system: Comamonas terrigena B-996; settings: read-out: minimum inhibitory concentration
Description: as §1, §2, §3

[17] = system: Bacillus subtilis ATCC 6633; settings: read-out: minimum inhibitory concentration
Description: as §1, §2, §3

[18] = system: Enterobacter cloacae 45; settings: read-out: minimum inhibitory concentration
Description: as §1, §2, §3

[19] = system: Pseudomonas aeruginosa IFO3445; settings: read-out: minimum inhibitory concentration
Description: as §1, §2, §3

[20] = system: Proteus sp. P22; settings: read-out: minimum inhibitory concentration
Description: as §1, §2, §3

[21] = system: Proteus vulgaris GN76; settings: read-out: minimum inhibitory concentration
Description: as §1, §2, §3

[22] = system: Staphylococcus epidermidis; settings: read-out: minimum inhibitory concentration
Description: as §1, §2, §3

[23] = system: Staphylococcus aureus Russell; settings: read-out: minimum inhibitory concentration
Description: as §1, §2, §3

[24] = system: Enterobacter sp. E8; settings: read-out: minimum inhibitory concentration
Description: as §1, §2, §3

[25] = P7, agar dilution, 35° C., 20 hours
[26] = SP.P8, agar dilution, 35° C., 20 hours
[27] = S18, agar dilution, 35° C., 20 hours
[28] = NCTC10490, agar dilution, 35° C., 20 hours
[29] = T55, agar dilution, 35° C., 20 hours
[30] = IFO3445, agar dilution, 35° C., 20 hours
[31] = agar dilution, 35° C., 20 hours
[32] = GN76, agar dilution, 35° C., 20 hours

For `CCC1C(=O)N2C(C(=O)[O-])=C(Sc3ccccc3)CC12.[Na+]` (centres unmarked), the MIC ([1]; P7, 20 h) was 75 mg/L, the MIC ([2]; K13, 20 h) was > 150 mg/L and the MIC ([3]; SP.P8, 20 h) was 18.8 mg/L. For the same molecule, the MIC ([4]; K12, 20 h) was 37.5 mg/L, the MIC ([5]; RGN823, 20 h) was 37.5 mg/L and the MIC ([6]; S18, 20 h) was 75 mg/L. It also gave an MIC ([7]; GN346, 20 h) of 150 mg/L, an MIC ([8]; E19, 20 h) of 150 mg/L and an MIC ([9]; 20 h) of 0.1 mg/L. The MIC ([10]; A1, 20 h) was 4.7 mg/L, the MIC ([11]; NCTC10490, 20 h) was 4.7 mg/L and the MIC ([12]; 20 h) was < 0.01 mg/L. For the same molecule, the MIC ([13]; T55, 20 h) was 150 mg/L, the MIC ([14]; P6, 20 h) was 75 mg/L and the MIC ([15]; 20 h) was < 0.01 mg/L. The MIC ([16]; B996, 20 h) was < 0.01 mg/L, the MIC ([17]; ATCC6633, 20 h) was 0.07 mg/L and the MIC ([18]; Enterobacter cloacae, 45, 20 h) was 150 mg/L. The MIC ([19]; IFO3445, 20 h) was 18.8 mg/L, the MIC ([20]; 20 h) was 75 mg/L and the MIC ([21]; GN76, 20 h) was 150 mg/L. For the same molecule, the MIC ([22]; 20 h) was < 0.01 mg/L, the MIC ([23]; 20 h) was < 0.01 mg/L and the MIC ([24]; SP.E8, 20 h) was 75 mg/L.
`CC(C)C1C(=O)N2C(C(=O)O)=C(Sc3ccccn3)CC12` (centres unmarked) gave an MIC [1, 25] of 6.25 mg/L (≈ 20.5 µM), an MIC [3, 26] of 3.13 mg/L (≈ 10.3 µM) and an MIC [6, 27] of 50 mg/L (≈ 164 µM). For the same molecule, the MIC [11, 28] was 50 mg/L (≈ 164 µM), the MIC [13, 29] was 50 mg/L (≈ 164 µM) and the MIC [19, 30] was 50 mg/L (≈ 164 µM). It also gave an MIC [20, 31] of 12.5 mg/L (≈ 41.1 µM) and an MIC [21, 32] of 12.5 mg/L (≈ 41.1 µM).
For `CC(O)[C@H]1C(=O)N2C(C(=O)O)=C(Sc3ccccn3)C[C@H]12` (some centres unmarked), the MIC [1, 25] was 25 mg/L (≈ 81.6 µM), the MIC ([2]; K13, agar dilution, 35° C., 20 hours) was 50 mg/L (≈ 163 µM) and the MIC [3, 26] was 3.13 mg/L (≈ 10.2 µM). It also gave an MIC ([4]; K12, agar dilution, 35° C., 20 hours) of 6.25 mg/L (≈ 20.4 µM), an MIC ([5]; RGN823, agar dilution, 35° C., 20 hours) of 12.5 mg/L (≈ 40.8 µM) and an MIC [6, 27] of 50 mg/L (≈ 163 µM). The MIC ([7]; GN346, agar dilution, 35° C., 20 hours) was 100 mg/L (≈ 326 µM), the MIC ([8]; E19, agar dilution, 35° C., 20 hours) was > 100 mg/L and the MIC [9, 31] was 0.39 mg/L (≈ 1.27 µM). The MIC ([10]; A1, agar dilution, 35° C., 20 hours) was 0.78 mg/L (≈ 2.55 µM), the MIC [11, 28] was 25 mg/L (≈ 81.6 µM) and the MIC [12, 31] was 0.05 mg/L (≈ 0.163 µM). For the same molecule, the MIC [13, 29] was 100 mg/L (≈ 326 µM), the MIC ([14]; P6, agar dilution, 35° C., 20 hours) was 12.5 mg/L (≈ 40.8 µM) and the MIC [15, 31] was 0.013 mg/L (≈ 0.0424 µM). The MIC ([16]; B996, agar dilution, 35° C., 20 hours) was 0.2 mg/L (≈ 0.653 µM), the MIC ([17]; ATCC6633, agar dilution, 35° C., 20 hours) was 0.78 mg/L (≈ 2.55 µM) and the MIC ([18]; Enterobacter cloacae, 45, agar dilution, 35° C., 20 hours) was 100 mg/L (≈ 326 µM). The MIC [19, 30] was 12.5 mg/L (≈ 40.8 µM), the MIC [20, 31] was 12.5 mg/L (≈ 40.8 µM) and the MIC [21, 32] was 25 mg/L (≈ 81.6 µM). For the same molecule, the MIC [22, 31] was 1.56 mg/L (≈ 5.09 µM), the MIC [23, 31] was 0.39 mg/L (≈ 1.27 µM) and the MIC ([24]; SP.E8, agar dilution, 35° C., 20 hours) was 25 mg/L (≈ 81.6 µM).
